Reference: US8133910B2, “Thiophene derivatives as S1P1/EDGE1 receptor agonists” (Actelion Pharmaceuticals Ltd., priority 2006, dated 2012)

How the values were obtained:
[1] = biological target: recombinant human S1P1 receptor (Homo sapiens, UniProt P21453); assay: GTPγS assay to determine EC50 values; format: biochemical; details: 35S-GTPγS binding, membrane preparations of CHO cells expressing recombinant human S1P1 receptor, pH 7.4
Experimental: GTPγS binding assays are performed in 96 well microtiter plates (Nunc, 442587) in a final volume of 200 μl, using membrane preparations of CHO cells expressing recombinant human S1P1 receptor. Assay conditions are 20 mM Hepes (Fluka, 54461), 100 mM NaCl (Fluka, 71378), 5 mM MgCl2 (Fluka, 63064), 0.1% BSA (Calbiochem, 126609), 1 μM GDP (Sigma, G-7127), 2.5% DMSO (Fluka, 41644), 50 pM ^35S-GTPγS (Amersham Biosciences, SJ1320). The pH is 7.4. Test compounds are dissolved and diluted in 100% DMSO and pre-incubated at room temperature for 30 min in 150 μl of the above assay buffer, in the absence of ^35S-GTPγS. After addition of 50 μl of ^35S-GTPγS, the assay is incubated for 1 h at rt. The assay is terminated by transfer of the reaction mixture to a Multiscreen plate (Millipore, MAHFC1H60) using a cell harvester from Packard Biosciences, and the plates are washed with ice-cold 10 mM Na2HPO4/NaH2PO4 (70%/30%), dried, sealed at the bottom and, after addition of 25 μl MicroScint20 (Packard Biosciences, order #6013621), sealed on the top. Membrane-bound ^35S-GTPγS is measured with a TopCount from Packard Biosciences.
EC50 is the concentration of agonist inducing 50% of the maximal specific ^35S-GTPγS binding. Specific binding is determined by subtracting non-specific binding from maximal binding. Maximal binding is the amount of cpm bound to the
Multiscreen plate in the presence of 10 μM of S1P. Non-specific binding is the amount of binding in the absence of an agonist in the assay.

[2] = test system: circulating lymphocytes; assay: Assessment of in vivo efficacy: circulating lymphocytes after oral administration; details: 6 h after oral administration of 10 mg/kg to normotensive male Wistar rats, as compared to vehicle group; mean±SEM
Experimental: The efficacy of the compounds of Formula (I) is assessed by measuring the circulating lymphocytes after oral administration of 3 to 30 mg/kg of a compound of Formula (I) to normotensive male Wistar rats. The animals are housed in climate-controlled conditions with a 12 h-light/dark cycle, and have free access to normal rat chow and drinking water. Blood is collected before and 3, 6 and 24 h after drug administration. Full blood is subjected to hematology using Advia Hematology system (Bayer Diagnostics, Zürich, Switzerland).
All data are presented as mean±SEM. Statistical analyses are performed by analysis of variance (ANOVA) using Statistica (StatSoft) and the Student-Newman-Keuls procedure for multiple comparisons. The null hypothesis is rejected when p<0.05.

Sequence of recombinant human S1P1 receptor (P21453 whole entry): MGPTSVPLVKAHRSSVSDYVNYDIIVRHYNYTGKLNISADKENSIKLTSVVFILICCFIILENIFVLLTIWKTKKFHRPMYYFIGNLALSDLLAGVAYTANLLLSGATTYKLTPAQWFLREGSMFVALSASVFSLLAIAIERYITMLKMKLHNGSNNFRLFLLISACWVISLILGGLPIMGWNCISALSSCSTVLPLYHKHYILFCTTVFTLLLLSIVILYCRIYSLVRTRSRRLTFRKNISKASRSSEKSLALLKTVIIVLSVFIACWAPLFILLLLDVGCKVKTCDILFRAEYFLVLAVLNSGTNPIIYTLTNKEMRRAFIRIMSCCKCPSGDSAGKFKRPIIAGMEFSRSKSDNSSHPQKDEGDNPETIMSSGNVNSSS

EC50 [1] [nM] | SMILES | Lymphocyte counts [2] [%]
2.6 | Cc1cc(-c2noc(-c3ccc(CC(C)C)s3)n2)cc(C)c1OCC(O)CNC(=O)CO (stereo not drawn) [Example 16] | –
0.6 | CCCc1ccc(-c2nc(-c3cc(C)c(OC[C@H](O)CNC(=O)CO)c(C)c3)no2)s1 [Example 17, (2R)—N-(3-{2,6-Dimethyl-4-[5-(5-propyl-thiophen-2-yl)-[1,2,4]oxadiazol-3-yl]-phenoxy}-2-hydroxy-propyl)-2-hydroxy-acetamide] | −59. ± 4
2.8 | Cc1cc(-c2nnc(-c3ccc(CC(C)C)s3)o2)cc(C)c1OCC(O)CNC(=O)CO (stereo not drawn) [Example 22, 2-hydroxy-N-(2-hydroxy-3-{4-[5-(5-isobutyl-thiophen-2-yl)-[1,3,4]oxadiazol-2-yl]-2,6-dimethyl-phenoxy}-propyl)-acetamide] | –
2.4 | CCCc1ccc(-c2nc(-c3cc(C)c(OC[C@@H](O)CNC(=O)CO)c(CC)c3)no2)s1 [Example 28, (2S)—N-(3-{2-Ethyl-6-methyl-4-[5-(5-propyl-thiophen-2-yl)-[1,2,4]oxadiazol-3-yl]-phenoxy}-2-hydroxy-propyl)-2-hydroxy-acetamide] | –
3.3 | Cc1cc(-c2nnc(-c3ccc(CC(C)C)s3)o2)cc(C)c1OC[C@@H](O)CNC(=O)CO [Example 31, 2-hydroxy-N-((2S)-2-hydroxy-3-{4-[5-(5-isobutyl-thiophen-2-yl)-[1,3,4]oxadiazol-2-yl]-2,6-dimethyl-phenoxy}-propyl)-acetamide] | –
– | CCc1cc(-c2nnc(-c3ccc(CC(C)C)s3)o2)cc(C)c1OC[C@@H](O)CNC(=O)CO [Example 37, N-((2S)-3-{2-Ethyl-6-methyl-4-[5-(5-isobutyl-thiophen-2-yl)-[1,3,4]oxadiazol-2-yl]-phenoxy}-2-hydroxy-propyl)-2-hydroxy-acetamide] | −67 ± 3
– | CCc1cc(-c2nnc(-c3cc(C)c(CC(C)C)s3)o2)cc(C)c1OC[C@@H](O)CO [Example 40, (2S)-3-{2-Ethyl-4-[5-(5-isobutyl-4-methyl-thiophen-2-yl)-[1,3,4]oxadiazol-2-yl]-6-methyl-phenoxy}-propane-1,2-diol] | −58 ± 3
0.6 | CCc1cc(-c2nnc(-c3cc(C)c(CC(C)C)s3)o2)cc(C)c1OC[C@@H](O)CNC(=O)CO [Example 42, N-((2S)-3-{2-Ethyl-4-[5-(5-isobutyl-4-methyl-thiophen-2-yl)-[1,3,4]oxadiazol-2-yl]-6-methyl-phenoxy}-2-hydroxy-propyl)-2-hydroxy-acetamide] | –
